A short description of data set [1]: Hepatocyte stability and metabolism (parent remaining, acid and OPD formation). The data set is classed as in vitro ADME. Particulars: human hepatocytes; for % left 6H Hum hep: 5 μM; for OPD: OPD formation by LC-MS/MS after phenylglyoxal derivatisation. As to the method:
The inventors have found, however, that formula (I) compound metabolites are substantially free of OPD when formula (I) compounds are subjected to conditions intended to mimic in vivo metabolism pathways. As used herein, the term “substantially free of OPD” means that OPD was not detected by LC-MS/MS after (i) incubating a formula (I) compound with human, monkey, dog and rat hepatocytes and (ii) treating the metabolite milieu with an acidic solution of phenylglyoxal in an organic solvent (this addition leads to quantitative formation of 2-phenylquinoxaline, which can be easily quantified with a low lower limit of quantitation (LLOQ)). See the Examples section.
To assess the stability and metabolism of RGFP compounds and to quantify the metabolites in hepatocytes. This assay was designed to evaluate the metabolism of RGFP compounds, following their incubation with human, monkey, dog and rat hepatocytes by monitoring either parent drug disappearance or metabolite appearance using LC-MS/MS. The results are shown in Table 5 ((% Left in Hep: IA<10%, 50%<A, 50%>B>30%, 30%>C>10%, ND: not determined).
Procedure: Turn on the water-bath heater to 37° C. Take out the KHB buffer and make sure it is at room temp before use. Prepare 2.5 mM concentration of RGFP compound in DMSO stock. Add 10 μL of above DMSO stock to 2490 μL KHB buffer; final concentration of RGFP compound will be 10 μM. Pre-warm 45 ml InVitro HT Medium to 37° C. in a sterile 50 ml conical tube. Add 1.0 mL Torpedo Antibiotic Mix per 45 mL InVitro HT medium. Transfer 13 mL of warm HT medium with Antibiotic Mix into a 15 mL conical tube. Carefully remove the hepatocyte vials from liquid nitrogen (liquid phase). Immediately immerse the vial into a 37° C. water bath. Shake gently until the ice melts entirely. […] Immediately empty contents of the vial into 13 ml of pre-warmed InVitro HT Medium with antibiotics. Rinse the vial with the HT media just transferred the hepatocytes to, in order to ensure complete transfer. Centrifuge the cell suspension at 600 RPM for 5 minutes at room temperature. […] Add 1.0 ml of KHB (at room temperature) buffer to the tube of hepatocyte pellet. Loosen the cell pellet by gently swirling the centrifuge tube. Transfer 100 μL of above solution to a different tube and add 900 μL of KHB buffer to count the cells. Determine the total cell count and the number of viable cells using the Trypan Blue exclusion method. Once the cell count is obtained, multiply the number by 10 (attributing to the dilution factor). Add required volume of KHB buffer to the tube containing hepatocytes such that the final count will be 2 million cells/mL. Dispense 50 μL of 2 million cells/ml to a 96 well plate and then add 50 μl of DMSO stock to respective wells (such that, the concentration of RGFP compounds is 5 μM and number of cells are 100000 in each well). Place the plates on a shaker in a 37° C. incubator with 5% CO2. Separate plates for each time point are advisable (Time points: 0 h, 1 h, 2 h, and 6 h). After each time point, add 100 μL of quenching solution. Quenching solution is an acetonitrile solution containing RGFP531 (10 μM) internal standard, 0.1% formic acid and phenylglyoxol (400 μM). The formic acid and phenylglyoxal is used for the identification and quantification of OPD as mentioned above. Pipette up and down a few times to ensure a complete stop of reaction. Transfer all the solution into a 1.5 ml tube, vortex thoroughly, and centrifuge at 14000 RPM at 4° C. for 5 minutes to precipitate cell debris. Transfer the 150 μL of supernatant to vials for analysis on LC-MS/MS.
LC-MS/MS parameters for RGFP compounds and metabolites including OPD: LC-MS/MS Parameters for API 2000 QTrap: System: HPLC 1100; Column: Gemini C18, 5 μM 4.6×50 mm; Column Temp: Ambient; MS: API 2000 QTrap (MI mode); Mobile Phase A: HPLC water with 0.05% Formic Acid; Mobile Phase B: Acetonitrile with 0.05% Formic Acid.

Data set [2] deals with HDAC2 (Homo sapiens (Human), UniProt Q92769). Put plainly: HDAC enzyme inhibition assay (Fluor-de-Lys), HDAC2. The data set is classed as biochemical. Particulars: 2 hours pre-incubation. As to the method:
The HDAC activity inhibition assay was performed as follows to determine the ability of a test compound to inhibit HDAC enzymatic activity. Serial dilutions of HDAC inhibitors were prepared in HDAC assay buffer (25 mM Tris/HCl, pH 8.0, 137 mM NaCl, 2.7 mM KCl, 1 mM MgCl2, pH 8) in 96-well assay plates (Fisher scientific, #07-200-309) and were pre-incubated for 2 hours at room temperature in the presence of 125 μg/ml BSA and purified HDAC1 (BPS Bioscience, San Diego, Calif., #50051), HDAC2 (BPS Bioscience, #50053), or HDAC3/NcoR2 (BPS Bioscience, #50003) at concentrations of 1.25, 1.32, and 0.167 μg/mL, respectively. Following pre-incubation, Fluor-de-Lys™ substrate (Enzo Life Sciences, Plymouth Meeting, Pa., BML-KI104-0050) was added to a final concentration of 10 μM and plates were further incubated for 30 minutes at room temperature. The enzymatic reaction was stopped by addition of Trichostatin A (Sigma-Aldrich, St Louis, Mo., #T8552, final concentration: 100 nM) and trypsin (MP Biomedicals, Solon, Ohio, #02101179) was added to reach a final concentration of 100 μg/mL. After a 15 minute incubation at room temperature, fluorescence was recorded using a Spectramax M2 fluorometer (Molecular Devices, Sunnyvale, Calif.) with excitation at 365 nm and emission at 460 nm. IC50 values were calculated by using a sigmoidal dose-response (variable slope) equation in GraphPad Prism® 5 for Windows (GraphPad Software, La Jolla, Calif.). Results for selected compounds in the HDAC activity inhibition assay are presented in Table 5 (IC50 ranges: IA>20 μM, A<1 μM, 1<B<5 μM, 5<C<10 μM, 10<D<20 μM, ND: not determined).

A short description of data set [3]: Acid stability determination. The data set is classed as physicochemical. Particulars: 0.01 M HCl, 50° C., 100 μM. As to the method: A 100 μM solution of test compound was prepared by dilution of a 10 mM DMSO stock solution in a 0.01 M solution of HCl in deionized water. Immediately after mixing, an aliquot (100 μL) was sampled and analyzed by HPLC/UV. The area under the compound peak was determined and used as the time zero reference point. The remainder of the acid sample was incubated at 50° C. and samples were taken after 2, 4, and 24 hours of incubation. On a few occasions, samples were taken at 30 rather than 24 hours. These were analyzed by the same HPLC/UV method and the area of the peak corresponding to the test compound was measured. Percent remaining at a given time point was then calculated as the ratio of the area under the peak after incubation to that at time zero times 100. In those cases where a 30 hour time point was recorded, the percent remaining at 24 hours was obtained by interpolation of the percent remaining versus time curve assuming a unimolecular process, i.e. a monoexponential decay. Percent remaining after 24 hours incubation are presented in Table 5 below, where A corresponds to more than 60%, B is between 40 and 60%, C covers 20 to 40% and D means less than 20%.

This note sets out measurements from US10428028B2, “HDAC inhibitors” (BIOMARIN PHARMACEUTICAL INC., priority 2013, dated 2019).

What is called IC50 is the point on the concentration scale where inhibition reaches its midpoint.

Chain of HDAC2 (Q92769 whole entry): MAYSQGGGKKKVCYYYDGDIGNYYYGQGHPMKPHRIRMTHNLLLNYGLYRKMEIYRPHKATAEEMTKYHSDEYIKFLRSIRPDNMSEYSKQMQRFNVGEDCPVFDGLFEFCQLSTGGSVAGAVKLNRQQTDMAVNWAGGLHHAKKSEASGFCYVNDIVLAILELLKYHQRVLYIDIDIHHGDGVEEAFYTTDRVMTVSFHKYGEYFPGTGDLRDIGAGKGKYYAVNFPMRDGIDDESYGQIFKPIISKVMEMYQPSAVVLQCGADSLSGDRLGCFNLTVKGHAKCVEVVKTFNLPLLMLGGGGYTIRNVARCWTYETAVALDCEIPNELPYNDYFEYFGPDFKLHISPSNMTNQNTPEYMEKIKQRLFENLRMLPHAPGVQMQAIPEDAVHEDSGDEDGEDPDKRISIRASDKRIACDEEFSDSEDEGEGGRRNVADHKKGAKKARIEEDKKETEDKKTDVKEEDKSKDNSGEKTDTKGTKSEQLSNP

`Nc1ccccc1NC(=O)c1ccc2c(cnn2Cc2cccnc2)c1` [Compound A1]: in data set [1], the “% left 6H Hum hep” value is on record as “A (50%<A)” and the OPD result is “No OPD”. The same molecule gave an IC50 in data set [2] of less than 1000 nM.

Regarding `Nc1ccccc1NC(=O)c1ccc2c(cnn2Cc2ccccc2)c1` [Compound A2], in data set [1], the “% left 6H Hum hep” value is “B (50%>B>30%)” and the OPD entry was “No OPD”. Further, in data set [2], the IC50 is less than 1000 nM. In addition, the “Acid Stability % Left 24 hr” value in data set [3] was “B (B is between 40 and 60%)”.

Regarding `Cn1cc(Cn2ncc3cc(C(=O)Nc4ccccc4N)ccc32)cn1` [Compound A3], in data set [1], the “% left 6H Hum hep” value was “A (50%<A)” and the OPD result is on record as “No OPD”. The half-maximal inhibitory concentration (IC50) in data set [2] is less than 1000 nM.

As to `Nc1ccccc1NC(=O)c1ccc2c(cnn2Cc2cncc(F)c2)c1` [Compound A4, N-(2-aminophenyl)-1-((5-fluoropyridin-3-yl)methyl)-1H-indazole-5-carboxamide], in data set [1], the “% left 6H Hum hep” value was “A (50%<A)” and the OPD result is on record as “No OPD”.

With `Cc1ccc(Cn2ncc3cc(C(=O)Nc4ccccc4N)ccc32)c(C)n1` [Compound A5], in data set [1], the “% left 6H Hum hep” value is “B (50%>B>30%)” and the OPD entry was “No OPD”. In addition, in data set [2], the IC50 was less than 1000 nM.

`Nc1cc(F)ccc1NC(=O)c1ccc2c(cnn2Cc2cccnc2)c1` [Compound A6]: in data set [1], the “% left 6H Hum hep” value was “B (50%>B>30%)” and the OPD entry is listed as “No OPD”. This molecule also returned an IC50 in data set [2] of less than 1000 nM. Besides, the “Acid Stability % Left 24 hr” value in data set [3] was “A (A corresponds to more than 60%)”.

Consider `Nc1cc(F)ccc1NC(=O)c1ccc2c(cnn2Cc2cncc(F)c2)c1` [Compound A7], for which, in data set [1], the “% left 6H Hum hep” value was “B (50%>B>30%)” and the OPD entry is on record as “No OPD”. Moreover, the 50% inhibitory concentration (IC50) in data set [2] is less than 1000 nM. Also, the “Acid Stability % Left 24 hr” value in data set [3] is “B (B is between 40 and 60%)”.

Turning to `Cc1ccc(Cn2ncc3cc(C(=O)Nc4ccc(F)cc4N)ccc32)c(C)n1` [Compound A8], in data set [1], the “% left 6H Hum hep” value is “A (50%<A)” and the OPD result is recorded as “No OPD”. The half-maximal inhibitory concentration (IC50) in data set [2] lay in the range of 1000 to 5000 nM. Further, the “Acid Stability % Left 24 hr” value in data set [3] is listed as “A (A corresponds to more than 60%)”.

On to `Nc1ccccc1NC(=O)c1ccc2c(cnn2Cc2ccc(F)c(F)c2)c1` [Compound A9], for which, in data set [1], the “% left 6H Hum hep” value was “B (50%>B>30%)” and the OPD result is listed as “No OPD”. In data set [2], this molecule came in with an IC50 of less than 1000 nM. The “Acid Stability % Left 24 hr” value in data set [3] is on record as “A (A corresponds to more than 60%)”.

For `Nc1cc(F)ccc1NC(=O)c1ccc2c(cnn2CC2CC2)c1` [Compound A12], in data set [1], the “% left 6H Hum hep” value is recorded as “C (30%>C>10%)” and the OPD result is reported as “No OPD”. This molecule also yielded a 50% inhibitory concentration (IC50) in data set [2] of 5000 to 10000 nM. In addition, the “Acid Stability % Left 24 hr” value in data set [3] was “B (B is between 40 and 60%)”.

As for `Nc1ccccc1NC(=O)c1ccc2nn(Cc3cccnc3)cc2c1` [Compound A13], in data set [1], the “% left 6H Hum hep” value is recorded as “A (50%<A)” and the OPD entry was “No OPD”. Besides, the IC50 in data set [2] is less than 1000 nM.

Take `Nc1ccccc1NC(=O)c1ccc2nn(Cc3cncc(F)c3)cc2c1` [Compound A14, N-(2-aminophenyl)-2-((5-fluoropyridin-3-yl)methyl)-2H-indazole-5-carboxamide]: in data set [1], the “% left 6H Hum hep” value is “A (50%<A)” and the OPD entry is “No OPD”.

For the molecule `Cc1ccc(Cn2cc3cc(C(=O)Nc4ccccc4N)ccc3n2)c(C)n1` [Compound A15], in data set [1], the “% left 6H Hum hep” value is “A (50%<A)” and the OPD result is on record as “No OPD”. In data set [2], the IC50 lay in the range of 1000 to 5000 nM.
